Series [1] has as its target T1, recombinant human FAP protein (Homo sapiens, UniProt Q12884).
T1 construct: purchased Sino Biological Inc., Beijing, China 10464-H07H
T1 sequence (Q12884 1-760): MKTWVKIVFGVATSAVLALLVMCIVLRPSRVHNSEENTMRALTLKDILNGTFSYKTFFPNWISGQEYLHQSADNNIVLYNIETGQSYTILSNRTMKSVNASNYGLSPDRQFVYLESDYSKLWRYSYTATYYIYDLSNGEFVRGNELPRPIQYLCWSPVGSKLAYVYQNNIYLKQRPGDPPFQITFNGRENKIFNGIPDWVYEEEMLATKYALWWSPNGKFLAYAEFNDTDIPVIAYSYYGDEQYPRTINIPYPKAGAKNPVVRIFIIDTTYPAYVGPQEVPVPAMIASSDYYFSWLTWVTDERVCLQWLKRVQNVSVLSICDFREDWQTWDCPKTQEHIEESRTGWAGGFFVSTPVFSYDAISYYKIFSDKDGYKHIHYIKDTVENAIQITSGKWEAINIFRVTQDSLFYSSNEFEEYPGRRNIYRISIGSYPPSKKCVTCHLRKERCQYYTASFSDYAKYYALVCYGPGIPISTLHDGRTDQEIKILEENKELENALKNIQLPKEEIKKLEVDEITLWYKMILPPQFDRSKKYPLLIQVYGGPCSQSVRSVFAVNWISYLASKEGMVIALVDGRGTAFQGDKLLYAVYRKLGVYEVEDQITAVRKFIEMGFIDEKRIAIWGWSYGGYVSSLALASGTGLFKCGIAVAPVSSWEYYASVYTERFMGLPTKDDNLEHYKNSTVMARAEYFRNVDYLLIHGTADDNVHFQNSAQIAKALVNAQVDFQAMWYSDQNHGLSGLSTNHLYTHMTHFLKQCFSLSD
Briefly: Biacore SPR binding affinity measurement. Conditions: read-out: KD (equilibrium dissociation constant). As to the method: In order to determine the binding kinetics between ligands and human FAP protein (10464-H07H, Sino Biological Inc., Beijing, China), the Biacore SPR interaction study was conducted. The binding affinity is expressed by the equilibrium dissociation constant (KD) (M), which is calculated from the values of the measured binding rate constant (ka) (M^−1 s^−1) and dissociation rate (kd) (s^−1).
On the technique in general: SPR reads the build-up and loss of mass on a sensor chip optically.

A short description of series [2]: Octanol-water partition coefficient (n-octanol/PBS). The format is physicochemical. Conditions: n-octanol/PBS 1:1, ambient temperature. As to the method:
Radiotracers [^68Ga]Ga-DOTA-FAPI-04 and [^18F]AlF-H3RESCA-FAPI (0.37 MBq, about 50 µL) were added to tubes containing n-octanol/PBS mixture (1 mL, 1:1). The mixture was vortexed vigorously for 5 min at ambient temperature and then centrifuged for five min at 8000 rpm. In each phase, three samples (each 50 µL) were removed and measured in γ-counter (PerkinElmer). The partition coefficient was expressed as an equation as follows:(1) LogD7.4=LogCPM(n−octanol)/CPM(PBS)

For the molecule `N#C[C@@H]1CC(F)(F)CN1C(=O)CNC(=O)c1ccnc2ccc(OCCCN3CCN(C(=O)Cc4ccc(CN(CC(=O)O)[C@@H]5CCCC[C@H]5N(CC(=O)O)CC(=O)O)cc4)CC3)cc12` [H3RESCA-FAPI, 2,2′-(((1R,2R)-2-((carboxymethyl)(4-(2-(4-(3-((4-((2-((S)-2-cyano-4,4-difluoropyrrolidin-1-yl)-2-oxoethyl)carbamoyl)quinolin-6-yl)oxy)propyl)piperazin-1-yl)-2-oxoethyl)benzyl)amino)cyclohexyl)azanediyl)diacetic acid], in series [1], the Kd is below 0.0101 nM.
Take `N#C[C@@H]1CC(F)(F)CN1C(=O)CNC(=O)c1ccnc2ccc(OCCCN3CCN(C(=O)CN4CCN(CC(=O)[O-])CCN(CC(=O)O)CCN(CC(=O)[O-])CC4)CC3)cc12.[68Ga+3]` [[^68Ga]Ga-DOTA-FAPI-04]: the “logD7.4 (octanol-water partition coefficient)” value in series [2] is reported as −3.53 ± 0.05.

The Kd is the constant that tells how readily two partners part at equilibrium.

Source of the values: PMC11859916, “Design, Synthesis, and Biological Evaluation of a Novel [^18F]AlF-H3RESCA-FAPI Radiotracer Targeting Fibroblast Activation Protein” (Pharmaceuticals, 2025).
